Experiments:
[1] = Biodistribution of [11C]14e in mice; format: in vivo
Procedure: (§1) Radiosynthesis of [^11C] […] Tissue samples were taken and converted to % ID/g for each organ. Ex vivo autoradiography studies were also conducted in mice at 30 min post-injection of the radiotracer. A microPET imaging study was also performed on a male cynomolgus monkey.

σ1 receptors = target: T1, σ1 receptors (Mus musculus, UniProt O55242); experiment: Ex vivo autoradiography of [11C]14e in mice; details: 30 min post-injection
T1 construct: Ex vivo autoradiography studies were also conducted in mice; from tissue; host or cells: mouse brain (living animal, ex vivo autoradiography)
T1 sequence (O55242 whole entry): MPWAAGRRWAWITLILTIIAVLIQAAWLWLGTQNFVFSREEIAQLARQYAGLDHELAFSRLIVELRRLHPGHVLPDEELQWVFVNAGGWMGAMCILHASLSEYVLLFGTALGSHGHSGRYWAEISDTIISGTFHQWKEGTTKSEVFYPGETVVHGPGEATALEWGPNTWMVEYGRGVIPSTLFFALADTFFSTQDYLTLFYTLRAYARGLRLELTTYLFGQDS
Procedure: as §1

## [11CH3]Oc1ccc(C(=O)C2CCN([C@@H]3CCN(Cc4ccc(F)cc4)C[C@H]3O)CC2)cc1 [[^11C]14e, ((3′R,4′R)-1′-(4-fluorobenzyl)-3′-hydroxy-1,4′-bipiperidin-4-yl)(4-[^11C]methoxyphenyl)methanone]
[1]; 5 min post-injection
  regional brain uptake, cerebellum: 6.34±0.05 % ID/g
  regional brain uptake, cortex: 6.69±0.72 % ID/g
  regional brain uptake, hippocampus: 5.41±0.30 % ID/g
  regional brain uptake, striatum: 6.63±0.56 % ID/g
[1]; high between 5 and 30 min, washed out between 30 and 60 min
  clearance from brain: suitable clearance from brain
σ1 receptors
  distribution in brain by autoradiography: consistent with the distribution of σ1 receptors in brain

Source: US8658131B2, “Compounds comprising 4-benzoylpiperidine as a sigma-1-selective ligand” (Washington University, priority 2010, dated 2014)
